Values joined by “and” are separate entries in the source; they are usually repeats but may differ in a detail not shown here. Identical values can stand only once.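 Growth conditions: 96-well plates. Treatment: test compound, 48 hours, 5 concentrations. Analysis: linear interpolation between bracketing concentrations; unreached endpoints set to highest concentration. GI50 = concentration required for 50% inhibition of growth. TGI: total growth inhibition.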
Assays:
Experiment in all cases: NCI tumour cell line growth inhibition, 48 h
[1] = system: A549 NSCLC
[2] = system: HOP-92 NSCLC
[3] = system: K-562 leukemia
[4] = system: KM12 colon
[5] = system: PC-3 prostate
[6] = system: RXF 393 renal
[7] = system: SK-MEL-2 melanoma
[8] = system: SNB-75 CNS
[9] = system: T-47D breast
[10] = system: TK-10 renal

SMILES | GI50 [1] | TGI [1] | GI50 [2] | TGI [2] | GI50 [3] | TGI [3] | GI50 [4] | TGI [4] | GI50 [5] | TGI [5] | GI50 [6] | TGI [6] | GI50 [7] | TGI [7] | GI50 [8] | TGI [8] | GI50 [9] | TGI [9] | GI50 [10] | TGI [10]
CN(CC(=O)N(Cc1ccc(C2CCCCC2)cc1)c1ccc(C(=O)O)cc1)S(=O)(=O)c1c(F)c(F)c(F)c(F)c1F | 6590 nM | 21600 nM | 2110 nM | 4020 nM | 1930 nM | 5810 nM | 2940 nM | 9010 nM | 2080 nM | 3960 nM | 1930 nM | 3370 nM | 2060 nM | 3680 nM | 1610 nM | 2960 nM | 2090 nM | 4830 nM | 2750 nM | 10500 nM
C=CC(=O)N1CC2(CC(n3nc(-c4ccc5c(cnn5C)c4)c(-c4c(Cl)c(C)cc5[nH]ncc45)c3C)C2)C1 | 3050 nM | 12500 nM | 3360 nM | 14300 nM | 2780 nM | > 100000 nM | 1920 nM | 3720 nM | 3590 nM | 22800 nM | 1600 nM | 3490 nM | 1910 nM | 3630 nM | 2570 nM | 11900 nM | 3970 nM | 19300 nM | 3180 nM | 12800 nM
Cn1ncc(Cl)c1-c1cc(C(=O)N[C@H](CN)Cc2ccc(F)c(F)c2)oc1Cl | 1570 nM and 1200 nM | 15000 nM and > 10000 nM | 139 nM and 191 nM | 2420 nM and 1420 nM | 2340 nM and 3010 nM | 7350 nM and > 8680 nM | 590 nM and 255 nM | 6730 nM and 4430 nM | 263 nM and 133 nM | 9070 nM and > 6730 nM | 36.1 nM and 33.8 nM | 534 nM and 705 nM | 2440 nM and 1770 nM | 6820 nM and 4720 nM | 50.8 nM and 27 nM | 1400 nM and 846 nM | 19.3 nM and 24.5 nM | – | 961 nM and 203 nM | 8740 nM and 3920 nM
Cc1cc([N+](=O)[O-])c2ccccc2[n+]1[O-] | 245 nM and 204 nM | 807 nM and 905 nM | 308 nM and 153 nM | 1730 nM and 597 nM | 156 nM and 99.1 nM | 4280 nM and 3040 nM | 173 nM and 203 nM | 829 nM and 1050 nM | 165 nM and 149 nM | 1010 nM and 663 nM | 181 nM and 170 nM | 455 nM and 512 nM | 209 nM and 212 nM | 471 nM and 404 nM | 421 nM and 165 nM | 2090 nM and 722 nM | 385 nM and 534 nM | 3230 nM and 4890 nM | 187 nM and 210 nM | 541 nM and 623 nM
COc1ccc(/C(C#N)=C2C=C/C(=N/O)c3ccccc3\2)cc1 | 339 nM | 13400 nM | 390 nM | 6960 nM | 105 nM | 14300 nM | 175 nM | 4820 nM | 322 nM | 15700 nM | 437 nM | 20600 nM | 415 nM | 12300 nM | 259 nM | 11500 nM | 13700 nM | 39700 nM | 11300 nM | 28000 nM
Cn1cc(C2=C(c3cn(CCCCCSC(=N)N)c4ccccc34)C(=O)NC2=O)c2ccccc21 | 4400 nM | 8650 nM | 3270 nM | 7210 nM | 1490 nM | 5310 nM | 2080 nM | 5410 nM | 2680 nM | 6020 nM | 2550 nM | 5680 nM | 3130 nM | 6430 nM | 1010 nM | 4360 nM | 3460 nM | 9630 nM | 2660 nM | 5710 nM
CSc1ccc2c(c1)C(N1CCN(C)CC1)Cc1ccccc1S2 (stereo not drawn) | 2170 nM | 24200 nM and 5720 nM | 393 nM | 7770 nM and 2620 nM | – | 4500 nM | 1830 nM | 7490 nM and 3550 nM | 1890 nM | 17600 nM and 6510 nM | 1540 nM | 14000 nM and 3390 nM | 1950 nM | 7820 nM and 3800 nM | 1490 nM | 3150 nM and 3870 nM | 2190 nM | 42500 nM and 5170 nM | 1840 nM | 12800 nM and 3410 nM
COC(=O)[C@H]1CCCN1C(=O)[C@H]1CCCN1C(=O)[C@H](Cc1c[nH]c2ccccc12)NC(=S)Nc1cc(C(F)(F)F)cc(C(F)(F)F)c1 | 4080 nM | > 100000 nM | 1700 nM | 6970 nM | 5710 nM | > 100000 nM | 4470 nM | > 100000 nM | 3470 nM | > 100000 nM | 1840 nM | 4710 nM | 5340 nM | 27800 nM | 1450 nM | > 100000 nM | 3720 nM | > 100000 nM | 12700 nM | > 100000 nM
CC(=O)c1c(C)[nH]c(-c2nc3ccc(N4CCN(C)CC4)cc3[nH]2)c1-c1ccccc1 | 1450 nM | 22500 nM | 585 nM | 24500 nM | 779 nM | > 100000 nM | 1840 nM | 32600 nM | 1040 nM | > 100000 nM | 2840 nM | 16100 nM | 4020 nM | 22200 nM | 41.6 nM | 937 nM | 703 nM | 36100 nM | 604 nM | 27200 nM
